US20030044413A1, “Methods of limiting apoptosis of cells” (Regents of the University of Minnesota, priority 1998, published 2003)

Legend:
[1] = tested on: hepatocytes; assay: TUNEL assay in liver of rats fed bile acids; format: in vivo, rat; conditions: 10 days
Source text: Animals and diets. Male 160-175 gram (g) Sprague-Dawley rats (Sprague-Dawley, Indianapolis, Ind.) were maintained on a 12-hour (h) light-dark cycle and fed standard laboratory chow ad libitum for 3 days. […] On day 10, the animals were sacrificed by exsanguination under ether anesthesia between 9 a.m. and 11 a.m. The livers were removed, rinsed in normal saline, and flash-frozen in liquid nitrogen. Liver tissue samples were embedded in OCT, and 5 μm-thick cryostat sections were cut and mounted on slides. […] All animals received human care in compliance with the Guide for the Care and use of Laboratory Animals, prepared by the National Academy of Sciences (NIH Publication No. 86-23, revised 1985). Terminal transferase-mediated dUTP-digoxigenin nick end labeling (TUNEL) assay. Digoxigenin-nucleotide residues were added to 3′-OH ends of double or single-stranded DNA by terminal deoxynucleotidyl transferase. Reactions were performed according to the manufacturer's recommendations (Oncor, Inc., Gaithersburg, Md.), and the specimens were then coversliped with Permount medium (Fischer Scientific, Inc., Itasca, Ill.) prior to analysis by phase-contrast microscopy using a Nikon microscope (Nikon, Inc., Melville, N.Y.). Photographs were taken using Kodak Ektar-1000 film (Eastman Kodak Co., Rochester, N.Y.).

[2] = Bile acid quantification by gas chromatography in HuH-7 cells; format: in vitro ADME, human; conditions: 6 h
Procedure: In parallel experiments, isolated rat hepatocytes (2×10^7 cells) and HuH-7 cells (2×10^6 cells) were incubated with 50 μM or 100 μM, respectively, of DCA, UDCA or DCA+UDCA for 6 h. Cells were washed 3 times with PBS, pH 7.4, harvested, centrifuged at 800×g for 5 min in a JS-4.0 Beckman rotor (Beckman Instruments, Inc., Schaumburg, Ill.) at 4° C., washed again, and the final pellet was flash-frozen in liquid nitrogen. Cells were then analyzed for intracellular bile acid concentrations by gas chromatography.
Bile acid quantification by gas chromatography. […] Quantification of bile acids was achieved using gas chromatography, by comparing the peak height response of the individual bile acids with the peak height response obtained from the internal standard, nordeoxycholic acid, which was added to each sample prior to bile acid extraction.

[3] = tested on: HuH-7 cells; assay: FACS analysis of ΔΨm and ROS, HuH-7 cells; format: cell-based, human
Procedure: A ΔΨm and ROS measurement. ΔΨm and ROS production were measured by FACScan (Becton Dickinson) analysis. Freshly isolated rat hepatocytes were cultured for 3 h as described above and then incubated with William's E medium supplemented with either 100 μM DCA, 100 μM UDCA, equal molar amounts of both, or no bile acid (control), for 6 h. Rat hepatocytes were also cultured with either 1% ethanol, 100 μM UDCA, ethanol+UDCA, or no addition (control) for 4 h. HuH-7 cells, Hep G2 cells, and human osteogenic sarcoma Saos-2 cells were incubated with TGF-β1, anti-Fas antibody or okadaic acid, respectively, for 48 h under the same conditions as outlined above. For combination studies, cells were pretreated with UDCA or hyodeoxycholic acid for 60 min prior to addition of DCA, ethanol, TGF-β1, anti-Fas antibody or okadaic acid. Aliquots of 1.0×10^6 cells were incubated for 15 min at 37° C. with 50 nM 3,3′-dihexyloxacarbocyanine iodide [DiOC6(3)], 2 μM dihydroethidium (HE), or 5 μM 2′,7′-dichlorofluorescin diacetate (H2DCFDA; Molecular Probes, Inc. Eugene, Oreg.) and analyzed by cytofluorometry (Cathcart et al., Anal. Biochem., 134, 111-116 (1983); Zamzami et al., J. Exp. Med., 181, 1661-1672 (1 995); Carter et al., J. Leukocyte Biol., 55, 253-258 (1994)).
Rat primary hepatocytes were incubated with 100 μM DCA and 1% ETOH for 6 h and 4 h, respectively; HuH-7 cells with 1 nM TGF-β1 for 48 h; Hep G2 cells with 0.5 μg/ml anti-Fas antibody (CH-11) for 48 h, and Saos-2 cells with 50 nM okadaic acid (OA) for 48 h. In each combination group, cells were pretreated with 100 μM UDCA alone for 60 min prior to addition of the inducer. Aliquots of 1.0×10^6 cells were incubated for 15 min at 37° C. with 5 μM 2′,7′-dichlorofluorescin diacetate (H2DCFDA) and analyzed by cytofluorometry.

[4] = tested on: HeLa cells; assay: Okadaic acid-induced apoptosis, HeLa cells; format: cell-based, human
Procedure: HuH-7 cells were treated with 1 nM TGF-β1, 100 μM of either hyodeoxycholic acid, taurocholic acid, tauroursodeoxycholic acid (Sigma Chemical Co.) or glycoursodeoxycholic acid (Steraloids Inc., Wilton, N.H.), or a combination of TGF-β1 plus the individual bile acids for 72 h. HeLa and Cos-7 cells were incubated with 50 nM okadaic acid, 100 μM of either tauroursodeoxycholic acid or glycoursodeoxycholic acid, or a combination of okadaic acid plus the individual bile acids for 24 h. In the combination groups, cells were pretreated with the bile acid alone for 60 min prior to incuation with TGF-β1 or okadaic acid. In all studies, the medium was gently removed at the indicated times and scored for nonviable cells. The attached cells were fixed for morphologic evaluation of apoptosis.
Morphological evaluation of apoptosis. Morphology was performed as described previously (Oberhammer et al., Proc. Natl. Acad. Sci. USA 89, 5408-5412 (1992)). […] Fluorescence was visualized with a Zeiss standard fluorescence microscope (Carl Zeiss, Inc., Thornwood, N.Y.). […] Stained nuclei were scored by blind analysis and categorized according to the condensation and staining characteristics of chromatin. […] Three fields per dish of approximately 500 nuclei were counted; mean values are expressed as the percent of apoptotic nuclei.

[5] = rats fed chow with 0.4% bile acid
[6] = coincubation with 100 μM DCA and UDCA
[7] = incubated with 100 μM of the individual bile acid
[8] = inducer TGF-β1, HuH-7, inhibition by UDCA

C[C@H](CCC(=O)O)[C@H]1CC[C@H]2[C@@H]3CC[C@@H]4C[C@H](O)CC[C@]4(C)[C@H]3C[C@H](O)[C@]12C [DCA, deoxycholic acid]
change in TUNEL-positive cells ([1]; FIG. 1 legend, 0.4% in chow): significant increase | increase in TUNEL-positive liver cells from control values [1, 5]: ~40 fold | liver cells with positive nuclear staining for fragmented DNA (TUNEL) [1, 5]: 11% | intracellular concentration of the bile acid [2, 6]: 31.7 ± 15.0 nmol | intracellular concentration of the bile acid [2, 7]: 28.8±13.3 nmol/10^8cells

C[C@H](CCC(=O)O)[C@H]1CC[C@H]2[C@@H]3[C@@H](O)C[C@@H]4C[C@H](O)CC[C@]4(C)[C@H]3CC[C@]12C [UDCA, ursodeoxycholic acid]
increase in TUNEL-positive liver cells from control values [1, 5]: 2 fold | intracellular concentration of the bile acid [2, 6]: 45.5 ± 21.5 nmol | intracellular concentration of the bile acid [2, 7]: 204.7±97.2 nmol/10^8cells | Peroxides Production (%) Inducer + UDCA ([3]; 1 nM TGF-β1 48 h, 100 μM UDCA pretreatment 60 min): 5.8 ± 2.9 % | inhibition at 100 µM ([3]; Homo sapiens, inducer TGF-β1, HuH-7, 100 μM UDCA, read-out: % Inhibition of peroxides production): 47.3 ± 16% | Inhibition % Superoxide Anion [3, 8]: 69.9 ± 15.6% | Inhibition % _Ψm [3, 8]: 45.0 ± 21.7% | percent apoptosis ([4]; okadaic acid + UDCA): 20.5±7.1%

C=C1[C@@H](O)[C@@H]2O[C@]3(CC[C@H](/C=C/[C@@H](C)[C@@H]4CC(C)=C[C@@]5(O[C@H](C[C@@](C)(O)C(=O)O)CC[C@H]5O)O4)O3)CC[C@H]2O[C@@H]1[C@@H](O)C[C@H](C)[C@H]1O[C@@]2(CCCCO2)CC[C@H]1C [okadaic acid]
percent apoptosis ([4]; okadaic acid alone): 50.0±14.9%

TGF-β1: transforming growth factor β1, nonmembrane damaging inducer of apoptosis
Peroxides Production (%) Inducer ([3]; 1 nM TGF-β1, 48 h, HuH-7): 11.0 ± 2.9%
